Assay results: US9334272B2, “Derivatives of purinic and pyrimidinic antiviral agents and use thereof as potent anticancer agents” (Ramot at Tel-Aviv University Ltd., priority 2007, dated 2016)

Legend:
acetylated histone H4 [1] = assay: Histone H4 acetylation Western blot, U-251 cells; format: cell-based, human; settings: 2-4 hours of treatment
Procedure: (§1) For the determination of in vitro histone acetylation, 2.5-3×10^6 cells, seeded in 100 mm culture dishes, were supplemented with RPMI medium containing 10% heat inactivated FCS and were treated with the drugs the following day. At the specified times post-treatment, the cells were removed with a rubber policeman, centrifuged, washed, lysed with lysis buffer (PBS, Nonidet® NP-40 1%, sodium deoxycholate 0.5%, sodium dodecyl sulfate (SDS) 0.1%, 1 mM phenylmethylsulfonyl fluoride (PMSF), 1 mM sodium orthovanadate, and 1 μM each of leupeptin and pepstatin) and centrifuged at 10,000 g for 10 minutes at 4° C. […] The extract was then lyophilized, and protein concentration was determined with a BCA kit (Pierce, USA). […] The fold increase of acetylated histones was determined by the ratio of band intensities of treated and untreated cells or mice, normalized to loading control (total histone H3).
(§2) Cell lysates or acid extracted histones were solubilized in a concentrated (×4) loading buffer (62.5 mM Tris-HCl, pH 6.8, 1% SDS, 10% glycerol v/v, 1% dithiothreitol (DTT) and 0.1 mg/ml bromophenol blue). […] The membrane was exposed for 5 minutes to Chemiluminescence BioMax light film (Kodak, USA) and the intensity of the bands was measured with a VersaDoc instrument with a Quantityl program (Bio-Rad, USA). […]

p21 = p21 Western blot, U-251 cells; format: cell-based, human; settings: compared with Compound 12 and acyclovir
Procedure: Cell lysates or acid extracted histones were solubilized in a concentrated (×4) loading buffer (62.5 mM Tris-HCl, pH 6.8, 1% SDS, 10% glycerol v/v, 1% dithiothreitol (DTT) and 0.1 mg/ml bromophenol blue). Proteins (10-40 μg) were run on SDS-PAGE, transferred to a nitrocellulose membrane (Schleicher & Schuell, Germany) and probed with the primary antibodies, followed by incubation with a horseradish peroxidase (HRP)-goat anti-rabbit IgG or HRP-rabbit anti-mouse IgG as secondary antibodies. HRP bound to the secondary antibodies was visualized by the enhanced chemiluminescence method using the Western Blotting Luminol reagent (Santa Cruz, Calif., USA). The membrane was exposed for 5 minutes to Chemiluminescence BioMax light film (Kodak, USA) and the intensity of the bands was measured with a VersaDoc instrument with a Quantityl program (Bio-Rad, USA). The fold increase of each specific protein was determined by the ratio of band intensities of treated and untreated cells, normalized to loading control (actin or total histone H3).

[2] = Acute toxicity assay in mice; format: in vivo; settings: male, mouse, in vivo; single per os dose, ICR mice
Text: (§3) Male ICR mice, 8 weeks old (Harlan, Israel) were acclimated for 10 days before administration of the tested compounds. The animals were monitored for two weeks and weighed three times per week.

ICR mice = assay: Acute toxicity assay in mice; format: in vivo; settings: 2 weeks
Text: as §3

primary rat astrocytes = settings: 50 μM, 24 hours
Procedure: Brains were removed from neonatal rats, and the cerebral cortex was dissected and minced. The cells were dissociated by vigorous shaking in DMEM supplemented with 20% FCS, and cells from 3 brains were seeded in 20 mL of the medium. After one week, the serum concentration was reduced to 10%.
Cells were seeded in six-well plates (10^5 cells/well) for 24 hours and were then treated as specified, trypsinized, washed with PBS, double-stained with annexin V-FITC (fluorescein isothiocyanate) and propidium iodide, according to the manufacturer's instructions and subjected to flow cytometry analysis (FACScalibur cytometer, Becton Dickinson).

4T1 cells = assay: Hoechst viability assay, 4T1 breast carcinoma cells (Dox combination); format: cell-based, murine; settings: Mus musculus, 72 hours, 3 experiments
Procedure: (§4) Cells (in quadruplicate) at the specified density were suspended in 200 μL medium supplemented with 10% FCS seeded in 96-well plates for 24 hours, then exposed to the drugs for 72 hours. The viability of the cells was determined by Hoechst fluorescent assay as described by Nudelman et al., 2005. Leukemic cell viability after 72 hours of treatment was determined by an MTT (3-(4,5-dimethylthiazol-2-yl)-2,5-diphenyltetrazolium bromide) assay as described by Levovich et al., 2007.
(§5) IC50 values were determined by linear regression of the percentage of survival following drug titration.
The combination index for drug interaction was calculated by Chou's Median Effect Analysis (MEA) [Chou, 2006]. The combination index (CI) was defined as CI=D1/(DM)1+D2/(DM)2, where D1 and D2 are the doses of drug 1 and drug 2, respectively, (DM)1 and (DM)2 are the doses of drug 1 and drug 2 and their mixture (in a specified ratio) required to produce a median effect, e.g., IC50. CI<1, =1 or >1 indicates synergism, additive effect, and antagonism respectively.

[3] = tested on: 4T1 murine breast carcinoma; assay: Metastatic 4T1 breast carcinoma model; format: in vivo, mice; settings: 25 mg/kg, 4T1 model, p<0.05
Procedure: The syngeneic murine breast carcinoma metastatic model was performed with 8-10 weeks old BALB-c mice implanted with 4T1 cells. When the tumor volume reached 75-180 mm^3 (after ˜10 days), treatment was initiated for an additional 21 days. At termination, the animals were sacrificed and their lungs removed, stained with Bouin's solution, and lung lesions were scored under an illuminated magnifying glass.

[4] = tested on: 3LLD122 Lewis lung carcinoma; assay: Metastatic Lewis lung carcinoma (3LL) model; format: in vivo, mice; settings: Compound 6 30 mg/kg, Compound 7 25 mg/kg, per os thrice per week, 21 days; p<0.02 vs acyclovir
Procedure: Female C57/BL mice, 7-10 weeks old, were acclimated for ten days. All in vivo experiments were conducted according to the NIH Laboratory Animal Care Guidelines and in accordance with the guidelines and approval of the Tel Aviv University Committee for Animal Experimentation.
The subclone 3LLD122 of 3LL used in the study was selected for its aggressive and invasive nature. […] The animals were sacrificed after 21 days of treatment, their lungs were weighed, stained with Bouin's fixative and the metastatic lesions were scored double-blindly.

U-251 cells = assay: Reactive oxygen species by DCF-DA FACS, U-251 cells; format: cell-based, human; settings: 2 hour treatment
Procedure: ROS levels were determined by FACS analysis of U-251 cells treated with dichlorodihydrofluorescein diacetate (DCF-DA), which becomes fluorescent when oxidized.

22RV1 cells = assay: Hoechst viability assay, 22RV1 prostate carcinoma cells; format: cell-based, human
Procedure: as §4, §5

acetylated histone H4 [5] = assay: In vivo histone H4 acetylation in 4T1 tumors (Western blot); design: species or system mice; settings: 100 mg/kg each, 4 hours after treatment, vs vehicle
Procedure: as §1, §2

## CCCC(CCC)C(=O)Nc1nc2c(ncn2COCCOC(=O)C(CCC)CCC)c(=O)[nH]1 [Compound 6, N-valproyl-9-(2-valproyloxy)ethoxymethylguanine]
Acetylated histone H4 [1]
  acetylation of histone H4: induced acetylation of H4
p21
  expression of p21: induces expression of the cyclin dependent kinase inhibitor p21 more quickly and to a greater extent
[2]
  LD50 at 2 weeks: > 750 mg/kg
ICR mice; single per os dose 150 mg/kg
  Survival (%): 100%
ICR mice; single per os dose 200 mg/kg
  Survival (%): 100%
ICR mice; single per os dose 250 mg/kg
  Survival (%): 91.8%
ICR mice; single per os dose 500 mg/kg
  Survival (%): 100%
ICR mice; single per os dose 750 mg/kg
  Survival (%): 100%
Primary rat astrocytes
  viability of primary culture of astrocytes: did not affect the viability
4T1 cells
  IC50: 33.7 µM
[3]
  lung weight: reduction in lung weight
  number of observed lung lesions: reduction in the number of observed lung lesions
[4]
  number of lung macro-lesions (anti-metastatic activity): significant anti-metastatic activity
U-251 cells
  level of oxidation in cells (ROS): considerably increased the level of oxidation in cells
22RV1 cells
  activity relative to acyclovir: > 100 fold
22RV1 cells; Homo sapiens, 72 hours, Hoechst, read-out: IC50
  IC50: 23.2 ± 1.9 µM
Acetylated histone H4 [5]
  levels of acetylated H4 in tumors: significantly higher levels of acetylated H4
